Laboratory results from patent publication US20110040086A1, “Novel Beta-Lactam Antibiotics, Methods for Their Production, and Their Use” (DRITTE PATENTPORTFOLIO BETEILIGUNGSGESELLSCHAFT MB, priority 2007, published 2011).

How the values were obtained:
[1] = test system: Enterococcus faecalis 769; assay: agar diffusion test (Test System II, multi-resistant germs); assay type: cell-based; parameters: key: r = resistant (no detectable zone of inhibition)
Procedure, shortened: (§1)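 Compounds, dissolved in methanol or distilled water, were loaded onto paper discs at 10, 50 and 100 μg and placed three per plate on Müller-Hinton agar II spread with a McFarland 0.5 saline suspension. After 18-20 h at 37 °C, inhibition zone diameters were measured.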

[2] = test system: Staphylococcus aureus 315; assay: as above; assay type: cell-based; parameters: key: r = resistant (no detectable zone of inhibition)
Procedure, shortened: as §1

B. subtilis AWD 166 = assay: agar diffusion test (antimicrobial effect); assay type: cell-based, Bacillus subtilis
Experimental: (§2) The seeding of bacteria in agar is selected so that, dense, but not confluent individual colonies develop after the incubation.
(§3) The inoculated nutrient agar is set in sterile Petri dishes and left standing for a few minutes for drying.
(§4) The test substances are deposited in stepped quantities (10 μg, 50 μg, 100 μg) onto active ingredient carriers (sensi-discs). For this purpose, the test substances are dissolved in methanol or A. dest. according to their solubility. Each inoculated plate is fitted with 3 test sheets.
(§5) After a 20-hour incubation time at 37° C., the zones of inhibition around the individual test sheets could be measured. The diameter of the zone of inhibition is specified in mm.

S. epidermidis 563 = assay: agar diffusion test (Test System II, multi-resistant germs); assay type: cell-based, Staphylococcus epidermidis
Procedure, shortened: as §1

S. epidermidis 1068 = assay: as above; assay type: cell-based, Staphylococcus epidermidis
Procedure, shortened: as §1

S. epidermidis 1071 = assay: as above; assay type: cell-based, Staphylococcus epidermidis
Procedure, shortened: as §1

S. epidermidis 847 = assay: as above; assay type: cell-based, Staphylococcus epidermidis
Procedure, shortened: as §1

S. aureus 36881 = assay: as above; assay type: cell-based, Staphylococcus aureus; parameters: key: r = resistant (no detectable zone of inhibition)
Procedure, shortened: as §1

S. aureus 39105 = assay: as above; assay type: cell-based, Staphylococcus aureus; parameters: key: r = resistant (no detectable zone of inhibition)
Procedure, shortened: as §1

S. aureus 33490 = assay: as above; assay type: cell-based, Staphylococcus aureus; parameters: key: r = resistant (no detectable zone of inhibition)
Procedure, shortened: as §1

S. aureus 526 = assay: as above; assay type: cell-based, Staphylococcus aureus; parameters: key: r = resistant (no detectable zone of inhibition)
Procedure, shortened: as §1

S. aureus 34289 = assay: as above; assay type: cell-based, Staphylococcus aureus; parameters: key: r = resistant (no detectable zone of inhibition)
Procedure, shortened: as §1

[3] = test system: S. aureus North Germany strain; assay: as above; assay type: cell-based, Staphylococcus aureus; parameters: key: r = resistant (no detectable zone of inhibition)
Procedure, shortened: as §1

S. aureus 520 = assay: as above; assay type: cell-based, Staphylococcus aureus; parameters: key: r = resistant (no detectable zone of inhibition)
Procedure, shortened: as §1

S. epidermidis 125 = assay: as above; assay type: cell-based, Staphylococcus epidermidis
Procedure, shortened: as §1

E. faecalis 945 = assay: as above; assay type: cell-based, Enterococcus faecalis; parameters: key: r = resistant (no detectable zone of inhibition)
Experimental: as §4
Test System II (Effect Against Multi-Resistant Germs)
For this purpose, bacteria is cultivated on Müller-Hinton-Agar II plates.
With 1-1.5 ml physiological saline solution, a bacteria suspension of McFarland 0.5 (corresponds to a bacteria density of 150×10^6 germs) is produced. Then, with a sterile glass rod, a small drop of bacteria suspension is placed on the Müller-Hinton-Agar plate and coated in three layers (vertical, horizontal, and transverse). Thereafter, the sensi-discs with the novel semi-synthetic test substances are placed on top. The fitted plates are incubated for 18-20 hours at 37° C. After incubation, the diameters of the zones of inhibition are read as a measure for the antimicrobial activity of the novel semi-synthetic test substances.

[4] = logP value by HPLC according to Donovan et al.; details: HPLC with methanol/0.1% phosphoric acid gradient, pH 2
Experimental: • Operating temperature 18-24° C. • Flow 1.5 mL/min • Linear gradient (methanol/0.1% phosphoric acid pH 2) from 10% to 100% methanol in 9.4 min, equilibrium time between 2 runs 6 min
ca. 0.5 mg of analyte is added to 0.5 ml of a standard solution (440 mg methyl phenyl sulfonate and 380 μl toluene in 150 mL methanol). 2 μl of this sample solution is injected.
Because the distribution coefficients of the two standards running in each test are known, the distribution coefficient of the analytes can be determined from the relationships of the analyte/standard retention times.

[5] = test system: Escherichia coli SBUG 1135; assay: agar diffusion test (Test System 1, antimicrobial effect); assay type: cell-based
Experimental: (§6) Test System 1 (Antimicrobial Effect)
(§7) The test germs Escherichia coli SBUG 1135 and Bacillus megaterium SBUG 1152 are drawn overnight (17 hours at 37° C.) in 5 ml nutrient medium II. The incubation is performed in a shaking incubator (INFORS AG CH 4103, Bottmingen, Switzerland) at a shaking frequency of 180 rpm.
(§8) After 17 h incubation time, Escherichia coli has reached a cell density of ca. 2.4×10^10 cells/ml and Bacillus megaterium a cell density of ca. 2.1×10^8 cells/ml.
as §2
Escherichia coli: the ÜN is diluted 1:100 with physiological saline solution, of which 0.1 ml is converted into 10 ml nutrient agar. That corresponds to a cell count of 10^6.
as §3, §4, §5

[6] = test system: Bacillus megaterium SBUG 1152; assay: as above; assay type: cell-based
Experimental: as §6, §7, §8, §2
Bacillus megaterium: 0.1 ml of non-diluted overnight culture (ÜN) in 10 ml nutrient agar corresponds to a cell count of 10^6.
as §3, §4, §5

S. aureus ATCC 6538 = assay: agar diffusion test (Test System II, multi-resistant germs); assay type: cell-based, Staphylococcus aureus
Procedure, shortened: as §1

S. aureus 38418 = assay: as above; assay type: cell-based, Staphylococcus aureus
Procedure, shortened: as §1

chromatographic logP [4]: -3.28
SMILES: N[C@@H](C(=O)N[C@@H]1C(=O)N2C(C(=O)O)=C(Cl)CS[C@H]12)c1ccccc1 [2c, Cefaclor, reference compound]
Diameter of zone of inhibition ([1]; Quantity n 0.019): r^2
Diameter of zone of inhibition ([1]; Quantity n 0.1): 8 mm
Diameter of zone of inhibition ([1]; Quantity n 0.19): 14 mm
Diameter of zone of inhibition ([2]; Quantity n 0.019): r
Diameter of zone of inhibition ([2]; Quantity n 0.1): 10 mm
Diameter of zone of inhibition ([2]; Quantity n 0.19): 12 mm
Diameter of zone of inhibition (B. subtilis AWD 166; Quantity n 0.019): 36 mm
Diameter of zone of inhibition (B. subtilis AWD 166; Quantity n 0.1): 38 mm
Diameter of zone of inhibition (B. subtilis AWD 166; Quantity n 0.19): 40 mm
Diameter of zone of inhibition (S. epidermidis 563; Quantity n 0.019): 30 mm
Diameter of zone of inhibition (S. epidermidis 563; Quantity n 0.1): 34 mm
Diameter of zone of inhibition (S. epidermidis 563; Quantity n 0.19): 36 mm
Diameter of zone of inhibition (S. epidermidis 1068; Quantity n 0.019): 22 mm
Diameter of zone of inhibition (S. epidermidis 1068; Quantity n 0.1): 24 mm
Diameter of zone of inhibition (S. epidermidis 1068; Quantity n 0.19): 30 mm
Diameter of zone of inhibition (S. epidermidis 1071; Quantity n 0.019): 28 mm
Diameter of zone of inhibition (S. epidermidis 1071; Quantity n 0.1): 30 mm
Diameter of zone of inhibition (S. epidermidis 1071; Quantity n 0.19): 32 mm
Diameter of zone of inhibition (S. epidermidis 847; Quantity n [mol] 0.019): 14 mm
Diameter of zone of inhibition (S. epidermidis 847; Quantity n [mol] 0.1): 24 mm
Diameter of zone of inhibition (S. epidermidis 847; Quantity n [mol] 0.19): 28 mm
Diameter of zone of inhibition (S. aureus 36881; Quantity n 0.019): r
Diameter of zone of inhibition (S. aureus 36881; Quantity n 0.1): 12 mm
Diameter of zone of inhibition (S. aureus 36881; Quantity n 0.19): 18 mm
Diameter of zone of inhibition (S. aureus 39105; Quantity n 0.019): 22 mm
Diameter of zone of inhibition (S. aureus 39105; Quantity n 0.1): 24 mm
Diameter of zone of inhibition (S. aureus 39105; Quantity n 0.19): 28 mm
Diameter of zone of inhibition (S. aureus 33490; Quantity n [μmol] 0.019): 24 mm
Diameter of zone of inhibition (S. aureus 33490; Quantity n [μmol] 0.1): 30 mm
Diameter of zone of inhibition (S. aureus 33490; Quantity n [μmol] 0.19): 32 mm
Diameter of zone of inhibition (S. aureus 526; Quantity n 0.019): r
Diameter of zone of inhibition (S. aureus 526; Quantity n 0.1): 8 mm
Diameter of zone of inhibition (S. aureus 526; Quantity n 0.19): 12 mm
Diameter of zone of inhibition (S. aureus 34289; Quantity n [mol] 0.019): r
Diameter of zone of inhibition (S. aureus 34289; Quantity n [mol] 0.1): r
Diameter of zone of inhibition (S. aureus 34289; Quantity n [mol] 0.19): 10 mm
Diameter of zone of inhibition ([3]; Quantity n 0.019): r
Diameter of zone of inhibition ([3]; Quantity n 0.1): 10 mm
Diameter of zone of inhibition ([3]; Quantity n 0.19): 14 mm
Diameter of zone of inhibition (S. aureus 520; Quantity n [mol] 0.019): r
Diameter of zone of inhibition (S. aureus 520; Quantity n [mol] 0.1): 10 mm
Diameter of zone of inhibition (S. aureus 520; Quantity n [mol] 0.19): 14 mm
Diameter of zone of inhibition (S. epidermidis 125; Quantity n 0.019): 26 mm
Diameter of zone of inhibition (S. epidermidis 125; Quantity n 0.1): 34 mm
Diameter of zone of inhibition (S. epidermidis 125; Quantity n 0.19): 36 mm
Diameter of zone of inhibition (E. faecalis 945; Quantity n 0.019): r
Diameter of zone of inhibition (E. faecalis 945; Quantity n 0.1): 8 mm
Diameter of zone of inhibition (E. faecalis 945; Quantity n 0.19): 12 mm
Diameter of zone of inhibition ([5]; Quantity n 0.019): 24 mm
Diameter of zone of inhibition ([5]; Quantity n 0.1): 30 mm
Diameter of zone of inhibition ([5]; Quantity n 0.19): 32 mm
Diameter of zone of inhibition ([6]; Quantity n 0.019): 36^1 mm
Diameter of zone of inhibition ([6]; Quantity n 0.1): 38 mm
Diameter of zone of inhibition ([6]; Quantity n 0.19): 40 mm
Diameter of zone of inhibition (S. aureus ATCC 6538; Quantity n 0.019): 30 mm
Diameter of zone of inhibition (S. aureus ATCC 6538; Quantity n 0.1): 38 mm
Diameter of zone of inhibition (S. aureus ATCC 6538; Quantity n 0.19): 40 mm
Diameter of zone of inhibition (S. aureus 38418; Quantity n [mol] 0.019): 26 mm
Diameter of zone of inhibition (S. aureus 38418; Quantity n [mol] 0.1): 34 mm
Diameter of zone of inhibition (S. aureus 38418; Quantity n [mol] 0.19): 38 mm
